Data as given in US9113629B2, “4-amino-6-(4-substituted-phenyl)-picolinates and 6-amino-2-(4-substituted-phenyl)-pyrimidine-4-carboxylates and their use as herbicides” (DOW AGROSCIENCES LLC, priority 2013, dated 2015).
Read-outs that look alike come from different tables or passages of the source.

Key:
[1] = system: Key Broadleaf Weed and Crop Species; assay: Post-emergent Test II herbicidal activity (Table 5); assay type: in vivo; settings: post-emergence, 336 h, 14 days after application; for pest or weed control at 70 g/ha: application rate 70 g ai/ha; for pest or weed control at 140 g/ha: application rate 140 g ai/ha
Procedure, shortened: (§1)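 Visual injury ratings (0 = no injury, 100 = complete kill) were taken 14 d after treatment, relative to untreated plants. Seedlings at the first–second true leaf stage received overhead spray at 187 L/ha; the highest rate was serially diluted to ½×, ¼×, ⅛× and 1/16×.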

[2] = system: Key Grass and Sedge Weeds as well as Grass Crops; assay: Post-emergent Test II herbicidal activity (Table 6); assay type: in vivo; settings: post-emergence, 336 h; for pest or weed control at 70 g/ha: 70 g ai/ha; for pest or weed control at 140 g/ha: 140 g ai/ha
Procedure, shortened: as §1

[3] = ABUTH: velvetleaf (Abutilon theophrasti), read-out: Visual Growth Reduction (%) 14 Days After Application, ABUTH
[4] = AMARE: redroot pigweed (Amaranthus retroflexus), read-out: Visual Growth Reduction (%) 14 Days After Application, AMARE
[5] = BRSNN: oilseed-rape, canola (Brassica napus), read-out: Visual Growth Reduction (%) 14 Days After Application, BRSNN
[6] = CHEAL: lambsquarters (Chenopodium album), read-out: Visual Growth Reduction (%) 14 Days After Application, CHEAL
[7] = EPHHL: wild poinsettia (Euphorbia heterophylla), read-out: Visual Growth Reduction (%) 14 Days After Application, EPHHL
[8] = HELAN: sunflower (Helianthus annuus), read-out: Visual Growth Reduction (%) 14 Days After Application, HELAN
[9] = VIOTR: wild pansy (Viola tricolor), read-out: Visual Growth Reduction (%) 14 Days After Application, VIOTR
[10] = CYPES: yellow nutsedge (Cyperus esculentus), read-out: Visual Growth Reduction (%) 14 Days After Application, CYPES
[11] = DIGSA: crabgrass (Digitaria sanguinalis), read-out: Visual Growth Reduction (%) 14 Days After Application, DIGSA
[12] = ECHCG: barnyardgrass (Echinochloa crus-galli), read-out: Visual Growth Reduction (%) 14 Days After Application, ECHCG
[13] = ORYSA: rice (Oryza sativa), crop, read-out: Visual Growth Reduction (%) 14 Days After Application, ORYSA
[14] = SETFA: giant foxtail (Setaria faberi), read-out: Visual Growth Reduction (%) 14 Days After Application, SETFA
[15] = SORVU: grain sorghum (Sorghum vulgare), read-out: Visual Growth Reduction (%) 14 Days After Application, SORVU
[16] = TRZSS (wheat, Triticum aestivum), crop, read-out: Visual Growth Reduction (%) 14 Days After Application, TRZSS
[17] = ZEAMX: maize, corn (Zea mays), crop, read-out: Visual Growth Reduction (%) 14 Days After Application, ZEAMX

COC(=O)c1nc(-c2ccc([N+](=O)[O-])cc2)c(F)c(N)c1Cl [Compound 95, methyl 4-amino-3-chloro-5-fluoro-6-(4-nitrophenyl)picolinate]
pest or weed control at 70 g/ha [1, 3]: 60 to 74% | pest or weed control at 140 g/ha [1, 3]: 75 to 84% | pest or weed control at 70 g/ha [1, 4]: 95 to 100% | pest or weed control at 140 g/ha [1, 4]: 95 to 100% | pest or weed control at 70 g/ha [1, 5]: 0 to 29% | pest or weed control at 140 g/ha [1, 5]: 30 to 44% | pest or weed control at 70 g/ha [1, 6]: 95 to 100% | pest or weed control at 140 g/ha [1, 6]: 95 to 100% | pest or weed control at 70 g/ha [1, 7]: 95 to 100% | pest or weed control at 140 g/ha [1, 7]: 95 to 100% | pest or weed control at 70 g/ha [1, 8]: 95 to 100% | pest or weed control at 140 g/ha [1, 8]: 95 to 100% | pest or weed control at 70 g/ha [1, 9]: 0 to 29% | pest or weed control at 140 g/ha [1, 9]: 0 to 29% | pest or weed control at 70 g/ha [2, 10]: 45 to 59% | pest or weed control at 140 g/ha [2, 10]: 75 to 84% | pest or weed control at 70 g/ha [2, 11]: 0 to 29% | pest or weed control at 140 g/ha [2, 11]: 0 to 29% | pest or weed control at 70 g/ha [2, 12]: 85 to 94% | pest or weed control at 140 g/ha [2, 12]: 95 to 100% | pest or weed control at 70 g/ha [2, 13]: 0 to 29% | pest or weed control at 140 g/ha [2, 13]: 0 to 29% | pest or weed control at 70 g/ha [2, 14]: 0 to 29% | pest or weed control at 140 g/ha [2, 14]: 0 to 29% | pest or weed control at 70 g/ha [2, 15]: 60 to 74% | pest or weed control at 140 g/ha [2, 15]: 60 to 74% | pest or weed control at 70 g/ha [2, 16]: 0 to 29% | pest or weed control at 140 g/ha [2, 16]: 0 to 29% | pest or weed control at 70 g/ha [2, 17]: 0 to 29% | pest or weed control at 140 g/ha [2, 17]: 0 to 29%

COC(=O)c1nc(-c2ccc(I)cc2)nc(N)c1OC [Compound 18]
pest or weed control at 70 g/ha [1, 3]: 75 to 84% | pest or weed control at 140 g/ha [1, 3]: 75 to 84% | pest or weed control at 70 g/ha [1, 4]: 0 to 29% | pest or weed control at 140 g/ha [1, 4]: 0 to 29% | pest or weed control at 70 g/ha [1, 5]: 75 to 84% | pest or weed control at 140 g/ha [1, 5]: 95 to 100% | pest or weed control at 70 g/ha [1, 6]: 85 to 94% | pest or weed control at 140 g/ha [1, 6]: 95 to 100% | pest or weed control at 70 g/ha [1, 7]: 95 to 100% | pest or weed control at 140 g/ha [1, 7]: 95 to 100% | pest or weed control at 70 g/ha [1, 8]: 95 to 100% | pest or weed control at 140 g/ha [1, 8]: 95 to 100% | pest or weed control at 70 g/ha [1, 9]: 0 to 29% | pest or weed control at 140 g/ha [1, 9]: 45 to 59% | pest or weed control at 70 g/ha [2, 10]: 95 to 100% | pest or weed control at 140 g/ha [2, 10]: 95 to 100% | pest or weed control at 70 g/ha [2, 11]: 0 to 29% | pest or weed control at 140 g/ha [2, 11]: 30 to 44% | pest or weed control at 70 g/ha [2, 12]: 0 to 29% | pest or weed control at 140 g/ha [2, 12]: 45 to 59% | pest or weed control at 70 g/ha [2, 13]: 0 to 29% | pest or weed control at 140 g/ha [2, 13]: 0 to 29% | pest or weed control at 70 g/ha [2, 14]: 0 to 29% | pest or weed control at 140 g/ha [2, 14]: 0 to 29% | pest or weed control at 70 g/ha [2, 15]: 30 to 44% | pest or weed control at 140 g/ha [2, 15]: 0 to 29% | pest or weed control at 70 g/ha [2, 16]: 30 to 44% | pest or weed control at 140 g/ha [2, 16]: 30 to 44% | pest or weed control at 70 g/ha [2, 17]: 95 to 100% | pest or weed control at 140 g/ha [2, 17]: 95 to 100%
